Reference: patent publication US9409037B2, “Enhanced anti-microbial PDT” (Biolitec Pharma Marketing LTD, priority 2010, dated 2016)

Test system: Staphylococcus aureus
Assay: Antimicrobial PDT killing of bacteria in calf serum in a flow system
Format: cell-based
Settings: 20 μM Safranin O in 99% calf serum; 532 nm laser, fluence rate 30 mW/cm^2, continuous irradiation; three passages, flow rate 10 ml/min
Description: In a separate test a composition comprising Safranin O was added to calf serum (100% serum) solution containing Staphylococcus aureus ([…]), which is a common component of the micro flora of wounds, resulting in a final concentration of 20 μM Safranin O in 99% calf serum. Irradiation was delivered in a flow system corresponding to FIG. 3 B via a light fiber from a laser, Ceralas G2 (Biolitec AG, Germany) operating at 532 nm and using a fluence rate of 30 mW/cm^2.

Cc1cc2nc3cc(C)c(N)cc3[n+](-c3ccccc3)c2cc1N.[Cl-] [Safranin O]
percentage of killing of bacteria: about 99.9%
